The source made the active and inactive calls. The calls are words filed in the database; no cut-off is given here.
Experiments:
[1] = target: 3',5'-cyclic-AMP phosphodiesterase 4B (Homo sapiens) (UniProt Q07343); assay: Inhibition of human PDE4B1 at 10 uM by Eurofins kinase assay relative to control
[2] = target: cGMP-dependent 3',5'-cyclic phosphodiesterase (Homo sapiens) (UniProt O00408); assay: Inhibition of human PDE2A1 at 10 uM by Eurofins kinase assay relative to control
[3] = target: cGMP-specific 3',5'-cyclic phosphodiesterase (Homo sapiens) (UniProt O76074); assay: Inhibition of human PDE5 at 10 uM by Eurofins kinase assay relative to control
Cryptosporidium parvum = assay: Antiparasitic activity against Cryptosporidium parvum Iowa oocyst infected in NOD SCID gamma mouse model assessed as reduction in parasite fecal shedding at 50 mg/kg, po administered twice daily for 7 days starting from day 7 post infection and measured on day 21 by qPCR analysis; type: functional, organism-based; settings: time 14.0 day
Cytochrome P450 2D6 = Cytochrome P450 2D6 (Homo sapiens, UniProt P10635); assay: Inhibition of recombinant human CYP2D6 by Eurofins assay; type: ADME
[4] = target: High affinity cAMP-specific and IBMX-insensitive 3',5'-cyclic phosphodiesterase 8A (Homo sapiens) (UniProt O60658); assay: Inhibition of human PDE8A1 at 10 uM by Eurofins kinase assay relative to control
[5] = target: T1, 3',5'-cyclic-AMP phosphodiesterase 4D (Homo sapiens, UniProt Q08499); assay: Inhibition of human PDE4D2 at 10 uM by Eurofins kinase assay relative to control
Cytochrome P450 3A4 = Cytochrome P450 3A4 (Homo sapiens, UniProt P08684); assay: Inhibition of recombinant human CYP3A4 by Eurofins assay; type: ADME
[6] = Aqueous solubility of compound at pH 7.4; type: physicochemical
PDE4B1 = PDE4B1 (Homo sapiens, UniProt Q07343); assay: Inhibition of recombinant human PDE4B1 extracted from Sf9 cells using [3H]cAMP as substrate at 10 uM by Eurofins kinase assay relative to control; type: toxicity, cell-free; settings: probe [3H]cAMP
Cytochrome P450 2C19 = Cytochrome P450 2C19 (Homo sapiens, UniProt P33261); assay: Inhibition of recombinant human CYP2C19 by Eurofins assay; type: ADME
[7] = target: cAMP and cAMP-inhibited cGMP 3',5'-cyclic phosphodiesterase 10A (Homo sapiens) (UniProt Q9Y233); assay: Inhibition of human PDE10A2 at 10 uM by Eurofins kinase assay relative to control
Cytochrome P450 2C8 = Cytochrome P450 2C8 (Homo sapiens, UniProt P10632); assay: Inhibition of recombinant human CYP2C8 by Eurofins assay; type: ADME
PDE5 = PDE5 (Homo sapiens, UniProt O76074); assay: Inhibition of human platelet PDE5 using [3H]cGMP as substrate at 10 uM by Eurofins kinase assay relative to control; type: toxicity; settings: human platelet PDE5, probe [3H]cGMP
Homo sapiens [8] = species: Homo sapiens; assay: Inhibition of human PDE1B at 10 uM by Eurofins kinase assay relative to control
[9] = target: cGMP-inhibited 3',5'-cyclic phosphodiesterase 3A (Homo sapiens) (UniProt Q14432); assay: Inhibition of human PDE3A at 10 uM by Eurofins kinase assay relative to control
[10] = target: High affinity 3',5'-cyclic-AMP phosphodiesterase 7A (Homo sapiens) (UniProt Q13946); assay: Inhibition of human PDE7A1 at 10 uM by Eurofins kinase assay relative to control
Homo sapiens [11] = species: Homo sapiens; assay: Inhibition of human PDE4A1A at 10 uM by Eurofins kinase assay relative to control
PDE6 = assay: Inhibition of bovine retina PDE6 using [3H]cGMP as substrate at 10 uM by Eurofins kinase assay relative to control; type: toxicity, Bos taurus; settings: cattle, bovine retina PDE6, probe [3H]cGMP
Cytochrome P450 1A2 = Cytochrome P450 1A2 (Homo sapiens, UniProt P05177); assay: Inhibition of recombinant human CYP1A2 by Eurofins assay; type: ADME
Homo sapiens [12] = species: Homo sapiens; assay: Inhibition of human PDE6 at 10 uM by Eurofins kinase assay relative to control
[13] = Cytotoxicity against human HCT-8 cells assessed as inhibition of cell proliferation incubated for 48 hrs by Celltiter aqueous assay; type: toxicity, cell-based; settings: read-out: TC50
PDE11A = PDE11A (Homo sapiens, UniProt Q9HCR9); assay: Inhibition of recombinant human PDE11A extracted from Sf9 cells using [3H]cAMP as substrate at 10 uM by Eurofins kinase assay relative to control; type: toxicity, cell-free; settings: probe [3H]cAMP
[14] = target: Dual 3',5'-cyclic-AMP and -GMP phosphodiesterase 11A (Homo sapiens) (UniProt Q9HCR9); assay: Inhibition of human PDE11A at 10 uM by Eurofins kinase assay relative to control
HCT-8 = assay: Cytotoxicity against human HCT-8 cells assessed as reduction in cell numbers upto 50 uM incubated for 48 hrs by high-density microscopic celltiter aqueous assay; type: toxicity, cell-based; settings: hct-8, 48 h
[15] = target: Voltage-gated inwardly rectifying potassium channel KCNH2 (Homo sapiens, UniProt Q12809); assay: Inhibition of human ERG by Eurofins kinase assay; type: toxicity
[16] = target: cGMP-inhibited 3',5'-cyclic phosphodiesterase 3B (Homo sapiens) (UniProt Q13370); assay: Inhibition of human PDE3B at 10 uM by Eurofins kinase assay relative to control
Cytochrome P450 2B6 = Cytochrome P450 2B6 (Homo sapiens, UniProt P20813); assay: Inhibition of recombinant human CYP2B6 by Eurofins assay; type: ADME
[17] = target: T1, 3',5'-cyclic-AMP phosphodiesterase 4D; assay: Inhibition of human PDE4D2 by Eurofins kinase assay; type: toxicity

T1 sequence (Q08499 whole entry): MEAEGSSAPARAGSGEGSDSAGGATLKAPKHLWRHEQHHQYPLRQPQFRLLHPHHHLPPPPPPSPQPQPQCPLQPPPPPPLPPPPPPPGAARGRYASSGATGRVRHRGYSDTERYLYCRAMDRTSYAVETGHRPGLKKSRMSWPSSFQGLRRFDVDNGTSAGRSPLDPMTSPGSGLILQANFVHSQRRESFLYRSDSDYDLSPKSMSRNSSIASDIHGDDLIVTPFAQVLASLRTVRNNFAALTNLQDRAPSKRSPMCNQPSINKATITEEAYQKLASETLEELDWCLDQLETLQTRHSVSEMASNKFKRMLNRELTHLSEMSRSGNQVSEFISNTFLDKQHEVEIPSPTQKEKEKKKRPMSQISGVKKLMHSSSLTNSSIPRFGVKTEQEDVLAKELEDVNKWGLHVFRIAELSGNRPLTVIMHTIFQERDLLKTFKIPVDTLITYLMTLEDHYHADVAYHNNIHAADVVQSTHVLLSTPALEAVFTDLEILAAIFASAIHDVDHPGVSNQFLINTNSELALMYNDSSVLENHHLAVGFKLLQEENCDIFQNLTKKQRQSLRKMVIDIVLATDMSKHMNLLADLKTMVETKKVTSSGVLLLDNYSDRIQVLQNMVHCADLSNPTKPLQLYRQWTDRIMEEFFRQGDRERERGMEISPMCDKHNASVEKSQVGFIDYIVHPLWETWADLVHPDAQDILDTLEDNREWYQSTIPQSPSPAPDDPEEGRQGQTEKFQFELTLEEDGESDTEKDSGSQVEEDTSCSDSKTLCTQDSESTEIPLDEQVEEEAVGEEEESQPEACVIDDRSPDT
Sequence of Cytochrome P450 3A4 (P08684 whole entry): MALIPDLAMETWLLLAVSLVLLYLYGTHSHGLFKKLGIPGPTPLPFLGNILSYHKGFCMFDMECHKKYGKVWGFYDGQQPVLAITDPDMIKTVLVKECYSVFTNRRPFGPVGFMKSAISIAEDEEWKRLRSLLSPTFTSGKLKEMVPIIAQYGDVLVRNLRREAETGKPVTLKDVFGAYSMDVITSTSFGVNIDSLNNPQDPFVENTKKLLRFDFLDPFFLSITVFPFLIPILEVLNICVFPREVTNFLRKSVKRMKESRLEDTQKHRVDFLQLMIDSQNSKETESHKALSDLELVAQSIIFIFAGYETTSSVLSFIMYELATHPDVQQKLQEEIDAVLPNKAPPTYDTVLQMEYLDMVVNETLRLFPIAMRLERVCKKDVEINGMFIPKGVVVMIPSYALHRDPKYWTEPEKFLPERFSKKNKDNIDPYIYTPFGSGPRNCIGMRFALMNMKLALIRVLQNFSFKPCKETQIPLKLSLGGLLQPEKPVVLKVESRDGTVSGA
Sequence of Cytochrome P450 2C8 (P10632 whole entry): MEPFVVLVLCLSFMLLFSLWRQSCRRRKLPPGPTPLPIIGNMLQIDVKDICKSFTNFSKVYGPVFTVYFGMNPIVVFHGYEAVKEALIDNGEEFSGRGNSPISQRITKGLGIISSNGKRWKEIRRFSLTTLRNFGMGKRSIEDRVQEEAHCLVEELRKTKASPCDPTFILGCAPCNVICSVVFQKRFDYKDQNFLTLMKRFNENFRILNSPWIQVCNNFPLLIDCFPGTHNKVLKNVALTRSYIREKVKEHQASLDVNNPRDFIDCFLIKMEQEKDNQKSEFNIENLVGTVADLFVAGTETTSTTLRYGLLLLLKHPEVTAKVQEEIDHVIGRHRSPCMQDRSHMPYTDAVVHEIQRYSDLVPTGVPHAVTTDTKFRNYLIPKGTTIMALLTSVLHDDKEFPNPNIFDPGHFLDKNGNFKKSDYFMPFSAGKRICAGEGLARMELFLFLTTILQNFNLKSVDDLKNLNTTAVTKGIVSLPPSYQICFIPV
Sequence of Cytochrome P450 2B6 (P20813 whole entry): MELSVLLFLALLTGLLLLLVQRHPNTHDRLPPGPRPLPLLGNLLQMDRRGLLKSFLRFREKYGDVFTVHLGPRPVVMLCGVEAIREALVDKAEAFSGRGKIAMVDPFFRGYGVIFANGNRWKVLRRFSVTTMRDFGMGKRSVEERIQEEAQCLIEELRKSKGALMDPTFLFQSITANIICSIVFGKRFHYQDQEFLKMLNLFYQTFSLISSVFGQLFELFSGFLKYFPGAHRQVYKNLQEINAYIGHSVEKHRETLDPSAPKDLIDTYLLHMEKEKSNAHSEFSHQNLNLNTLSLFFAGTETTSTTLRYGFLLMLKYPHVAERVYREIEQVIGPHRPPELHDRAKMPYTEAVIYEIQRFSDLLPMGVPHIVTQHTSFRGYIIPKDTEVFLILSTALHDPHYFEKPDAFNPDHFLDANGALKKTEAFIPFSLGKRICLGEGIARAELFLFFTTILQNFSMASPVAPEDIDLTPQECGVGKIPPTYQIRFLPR
Sequence of cAMP and cAMP-inhibited cGMP 3',5'-cyclic phosphodiesterase 10A (Homo sapiens) (Q9Y233 whole entry): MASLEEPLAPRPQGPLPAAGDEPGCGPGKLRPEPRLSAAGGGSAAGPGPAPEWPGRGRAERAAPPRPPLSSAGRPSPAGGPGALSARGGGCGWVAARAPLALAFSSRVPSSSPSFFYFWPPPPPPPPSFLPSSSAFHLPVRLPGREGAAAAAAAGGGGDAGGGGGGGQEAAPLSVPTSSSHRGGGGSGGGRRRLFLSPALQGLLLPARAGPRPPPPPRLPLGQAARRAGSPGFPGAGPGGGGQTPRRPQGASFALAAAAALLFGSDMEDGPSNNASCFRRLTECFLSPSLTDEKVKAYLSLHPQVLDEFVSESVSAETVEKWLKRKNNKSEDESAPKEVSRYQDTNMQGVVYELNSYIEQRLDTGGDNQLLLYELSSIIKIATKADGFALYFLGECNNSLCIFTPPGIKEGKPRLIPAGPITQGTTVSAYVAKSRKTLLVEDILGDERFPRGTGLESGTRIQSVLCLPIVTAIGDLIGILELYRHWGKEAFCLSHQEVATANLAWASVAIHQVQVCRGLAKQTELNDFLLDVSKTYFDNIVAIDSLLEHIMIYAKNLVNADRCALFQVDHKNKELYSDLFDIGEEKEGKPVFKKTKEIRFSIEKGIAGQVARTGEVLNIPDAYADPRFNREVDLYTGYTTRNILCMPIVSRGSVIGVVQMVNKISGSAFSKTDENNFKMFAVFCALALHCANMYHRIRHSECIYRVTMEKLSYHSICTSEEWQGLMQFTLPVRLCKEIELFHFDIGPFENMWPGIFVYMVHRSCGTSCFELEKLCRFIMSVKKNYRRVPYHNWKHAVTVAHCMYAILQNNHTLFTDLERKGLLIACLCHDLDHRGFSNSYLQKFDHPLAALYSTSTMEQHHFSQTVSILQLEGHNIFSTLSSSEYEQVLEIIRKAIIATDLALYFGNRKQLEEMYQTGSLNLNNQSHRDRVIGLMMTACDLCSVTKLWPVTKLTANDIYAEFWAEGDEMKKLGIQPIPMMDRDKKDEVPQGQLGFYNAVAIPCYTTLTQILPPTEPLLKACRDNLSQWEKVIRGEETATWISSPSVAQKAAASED
Sequence of cGMP-inhibited 3',5'-cyclic phosphodiesterase 3B (Homo sapiens) (Q13370 whole entry, looked up): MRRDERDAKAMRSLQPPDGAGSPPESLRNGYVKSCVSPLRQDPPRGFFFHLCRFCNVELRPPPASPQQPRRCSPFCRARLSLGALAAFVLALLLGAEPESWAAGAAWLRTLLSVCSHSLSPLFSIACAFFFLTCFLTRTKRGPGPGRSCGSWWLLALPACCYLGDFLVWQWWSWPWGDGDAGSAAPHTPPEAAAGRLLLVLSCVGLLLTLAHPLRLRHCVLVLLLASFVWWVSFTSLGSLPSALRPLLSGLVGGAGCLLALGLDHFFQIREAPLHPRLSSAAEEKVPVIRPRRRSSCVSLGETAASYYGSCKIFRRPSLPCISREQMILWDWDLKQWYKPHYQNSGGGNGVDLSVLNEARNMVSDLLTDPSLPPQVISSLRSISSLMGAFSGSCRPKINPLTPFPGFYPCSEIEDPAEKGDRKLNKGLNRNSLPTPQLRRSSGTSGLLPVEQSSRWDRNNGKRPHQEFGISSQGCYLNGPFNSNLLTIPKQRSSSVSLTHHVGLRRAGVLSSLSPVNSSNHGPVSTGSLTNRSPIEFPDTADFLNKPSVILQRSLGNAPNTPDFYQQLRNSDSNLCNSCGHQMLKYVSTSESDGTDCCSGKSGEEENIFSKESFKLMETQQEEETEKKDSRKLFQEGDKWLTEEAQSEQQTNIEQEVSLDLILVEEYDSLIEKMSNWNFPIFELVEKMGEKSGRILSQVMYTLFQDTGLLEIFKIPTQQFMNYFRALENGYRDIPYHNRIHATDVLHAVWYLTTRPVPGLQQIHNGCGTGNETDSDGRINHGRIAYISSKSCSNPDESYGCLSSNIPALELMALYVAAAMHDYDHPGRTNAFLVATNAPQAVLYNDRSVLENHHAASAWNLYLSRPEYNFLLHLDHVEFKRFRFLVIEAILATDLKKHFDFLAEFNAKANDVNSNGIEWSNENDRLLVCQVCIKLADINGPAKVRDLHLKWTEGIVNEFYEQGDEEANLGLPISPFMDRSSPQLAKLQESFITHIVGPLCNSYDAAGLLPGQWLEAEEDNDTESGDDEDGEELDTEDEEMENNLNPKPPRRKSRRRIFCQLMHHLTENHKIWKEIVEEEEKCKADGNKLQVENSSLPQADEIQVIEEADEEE
Sequence of Cytochrome P450 2D6 (P10635 whole entry): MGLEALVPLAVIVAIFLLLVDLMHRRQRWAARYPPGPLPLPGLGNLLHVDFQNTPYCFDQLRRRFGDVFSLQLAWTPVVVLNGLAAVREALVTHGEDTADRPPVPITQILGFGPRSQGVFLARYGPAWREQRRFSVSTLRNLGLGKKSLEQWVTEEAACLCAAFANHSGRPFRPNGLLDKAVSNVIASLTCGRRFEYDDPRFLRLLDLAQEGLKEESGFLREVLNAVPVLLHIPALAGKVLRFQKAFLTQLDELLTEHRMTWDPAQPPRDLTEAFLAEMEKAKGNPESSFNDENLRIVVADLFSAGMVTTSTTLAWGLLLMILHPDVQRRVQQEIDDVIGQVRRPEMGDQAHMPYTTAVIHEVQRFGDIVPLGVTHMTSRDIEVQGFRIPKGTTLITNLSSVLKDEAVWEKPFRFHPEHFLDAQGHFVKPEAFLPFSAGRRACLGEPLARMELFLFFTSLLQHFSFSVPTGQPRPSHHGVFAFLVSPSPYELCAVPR

Compound: CCc1nn(C)c2nc(-c3ccc(C(=O)O)cc3)nc(NCc3ccc(F)cc3)c12
- inhibition [1]: 54%
- inhibition [2]: 36%
- inhibition [3]: 93%
- Activity (Cryptosporidium parvum): Active
- IC50 (Cytochrome P450 2D6): > 10 µM
- inhibition [4]: 30%
- inhibition [5]: 42%
- IC50 (Cytochrome P450 3A4): > 10 µM
- solubility [6]: > 200 µM
- inhibition at 10 µM (PDE4B1): > 50%
- IC50 (Cytochrome P450 2C19): > 10 µM
- inhibition [7]: 37%
- IC50 (Cytochrome P450 2C8): > 10 µM
- inhibition at 10 µM (PDE5): > 50%
- inhibition (Homo sapiens [8]): 18%
- inhibition [9]: 27%
- inhibition [10]: 22%
- inhibition (Homo sapiens [11]): 31%
- inhibition at 10 µM (PDE6): > 50%
- IC50 (Cytochrome P450 1A2): > 10 µM
- inhibition (Homo sapiens [12]): 79%
- CC50 at 48 h [13]: > 100 µM
- inhibition at 10 µM (PDE11A): > 50%
- inhibition [14]: 55%
- Activity (HCT-8): Non-toxic
- IC50 [15]: > 10 µM
- inhibition [16]: 2%
- IC50 (Cytochrome P450 2B6): > 10 µM
- IC50 [17]: 8.2 µM
